MIC data for 27 compounds are collected here from US20140243302A1, “BRIDGED BICYCLIC COMPOUNDS FOR THE TREATMENT OF BACTERIAL INFECTIONS” (priority 2011, published 2014).

≈ marks a conversion by molar mass, not a printed value.

This assay relates to Staphylococcus aureus Smith. Briefly: MIC assay, modified agar dilution (CLSI), S. aureus Smith. Format: cell-based. The following applies: Staphylococcus aureus, agar dilution, 35° C., 16-20 hr; lowest concentration that completely inhibited growth; read-out: S_aureus_Smith_WT_MIC. The essentials:
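Agar dilution per CLSI on Mueller Hinton agar (plus 5% horse blood for S. pneumoniae and E. faecium), compound 128 to 0.001 μg/mL in two-fold steps. Spots of ~1×10^4 CFU incubated at 35 °C for 16-20 hr before MIC scoring.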
In the case of `CCOC(=O)c1csc(CNC23CCC(CCc4c(F)cnc5ccc(OC)nc45)(CC2)OC3)n1` [Example 86, Ethyl 2-(((1-(2-(3-Fluoro-6-methoxy-1,5-naphthyridin-4-yl)ethyl)-2-oxabicyclo[2.2.2]octan-4-yl)amino)methyl)thiazole-4-carboxylate], the MIC was 16 µg/mL (≈ 32 µM).

For `COc1ccc2ncc(F)c(CCC34CCC(NCc5cc6c(cc5F)OCO6)(CC3)CO4)c2n1.Cl` [Example 87, 1-(2-(3-Fluoro-6-methoxy-1,5-naphthyridin-4-yl)ethyl)-N-((6-fluorobenzo[d][1,3]dioxol-5-yl)methyl)-2-oxabicyclo[2.2.2]octan-4-amine Hydrochloride], the MIC turned out to be 0.063 µg/mL. Under `COc1ccc2ncc(F)c(CCC34CCC(NCc5nc6c(cc5Cl)OCC(=O)N6)(CC3)CO4)c2n1.Cl` [Example 88, 7-chloro-6-(((1-(2-(3-fluoro-6-methoxy-1,5-naphthyridin-4-yl)ethyl)-2-oxabicyclo[2.2.2]octan-4-yl)amino)methyl)-2H-pyrido[3,2-b][1,4]oxazin-3(4H)-one] stands 0.008 µg/mL; under `COc1ccc2ncc(F)c(CCC34CCC(NCc5cnc6c(c5)OCCN6C)(CC3)CO4)c2n1` [Example 89, 1-(2-(3-Fluoro-6-methoxy-1,5-naphthyridin-4-yl)ethyl)-N-((4-methyl-3,4-dihydro-2H-pyrido[3,2-b][1,4]oxazin-7-yl)methyl)-2-oxabicyclo[2.2.2]octan-4-amine], 0.125 µg/mL (≈ 0.253 µM); under `COc1ccc2ncc(F)c(CCC34CCC(NCc5ccc6c(c5)OC(F)(F)O6)(CC3)CO4)c2n1` [Example 90, N-((2,2-Difluorobenzo[d][1,3]dioxol-5-yl)methyl)-1-(2-(3-fluoro-6-methoxy-1,5-naphthyridin-4-yl)ethyl)-2-oxabicyclo[2.2.2]octan-4-amine], 0.125 µg/mL (≈ 0.249 µM).

`COc1ccc2ncc(F)c(CCC34CCC(NCc5ccc6c(c5)n(C)c(=O)n6C)(CC3)CO4)c2n1` [Example 91, 5-((1-(2-(3-Fluoro-6-methoxy-1,5-naphthyridin-4-yl)ethyl)-2-oxabicyclo[2.2.2]octan-4-ylamino)methyl)-1,3-dimethyl-1H-benzo[d]imidazol-2(3H)-one]: the MIC stood at 16 µg/mL (≈ 31.6 µM).

As for `COc1ccc2ncc(F)c(CCC34CCC(NCc5cnn(CC(F)F)c5)(CC3)CO4)c2n1` [Example 92, N-((1-(2,2-Difluoroethyl)-1H-pyrazol-4-yl)methyl)-1-(2-(3-fluoro-6-methoxy-1,5-naphthyridin-4-yl)ethyl)-2-oxabicyclo[2.2.2]octan-4-amine], the MIC stood at 0.125 µg/mL (≈ 0.263 µM). `COc1ccc2ncc(F)c(CCC34CCC(NCc5nn(C)cc5Cl)(CC3)CO4)c2n1` [Example 93, N-((4-Chloro-1-methyl-1H-pyrazol-3-yl)methyl)-1-(2-(3-fluoro-6-methoxy-1,5-naphthyridin-4-yl)ethyl)-2-oxabicyclo[2.2.2]octan-4-amine]: the MIC was found to be 16 µg/mL (≈ 34.8 µM). To `COc1ccc2ncc(F)c(CCC34CCC(NCc5cn(C)c(=O)n(C)c5=O)(CC3)CO4)c2n1` [Example 94, 5-((1-(2-(3-Fluoro-6-methoxy-1,5-naphthyridin-4-yl)ethyl)-2-oxabicyclo[2.2.2]octan-4-ylamino)methyl)-1,3-dimethylpyrimidine-2,4(1H,3H)-dione] belongs above 16 µg/mL; to `COc1ccc2ncc(F)c(CCC34CCC(NCc5ccc(OC(F)F)c(OC)c5)(CC3)CO4)c2n1` [Example 95, N-(4-(Difluoromethoxy)-3-methoxybenzyl)-1-(2-(3-fluoro-6-methoxy-1,5-naphthyridin-4-yl)ethyl)-2-oxabicyclo[2.2.2]octan-4-amine], 0.5 µg/mL (≈ 0.966 µM); to `COc1ccc2ncc(F)c(CCC34CCC(NCc5cc6c(cn5)OCC(=O)N6)(CC3)CO4)c2n1` [Example 96, 7-(((1-(2-(3-Fluoro-6-methoxy-1,5-naphthyridin-4-yl)ethyl)-2-oxabicyclo[2.2.2]octan-4-yl)amino)methyl)-1H-pyrido[3,4-b][1,4]oxazin-2(3H)-one], 0.031 µg/mL (≈ 0.0628 µM). For the compound `COc1ccc2ncc(F)c(CCC34CCC(NCc5nc6ccccc6[nH]c5=O)(CC3)CO4)c2n1` [Example 97, 3-(((1-(2-(3-Fluoro-6-methoxy-1,5-naphthyridin-4-yl)ethyl)-2-oxabicyclo[2.2.2]octan-4-yl)amino)methyl)quinoxalin-2(1H)-one], the MIC stood at 1 µg/mL (≈ 2.04 µM). Regarding `COc1ccc2ncc(F)c(CCC34CCC(NCc5nc6c(cc5F)OCC(=O)N6)(CC3)CO4)c2n1` [Example 98, 7-Fluoro-6-(((1-(2-(3-fluoro-6-methoxy-1,5-naphthyridin-4-yl)ethyl)-2-oxabicyclo[2.2.2]octan-4-yl)amino)methyl)-2H-pyrido[3,2-b][1,4]oxazin-3(4H)-one], the MIC is 0.016 µg/mL (≈ 0.0313 µM).

For `COc1ccc2ncc(F)c(CCC34CCC(NCc5ccc6c(n5)NC(=O)C(C)(C)O6)(CC3)CO4)c2n1.Cl` [Example 99, 6-((1-(2-(3-Fluoro-6-methoxy-1,5-naphthyridin-4-yl)ethyl)-2-oxabicyclo[2.2.2]octan-4-ylamino)methyl)-2,2-dimethyl-2H-pyrido[3,2-b][1,4]oxazin-3(4H)-one], the MIC was found to be 0.25 µg/mL. `COc1ccc2ncc(F)c(CCC34CCC(NCc5ccc6c(n5)N(C)C(=O)CO6)(CC3)CO4)c2n1` [Example 101, 6-((1-(2-(3-Fluoro-6-methoxy-1,5-naphthyridin-4-yl)ethyl)-2-oxabicyclo[2.2.2]octan-4-ylamino)methyl)-4-methyl-2H-pyrido[3,2-b][1,4]oxazin-3(4H)-one]: the MIC came out at 2 µg/mL (≈ 3.94 µM). Take `COc1ccc2ncc(F)c(CCC34CCC(NCc5cc6cc(F)ccc6n(C)c5=O)(CC3)CO4)c2n1` [Example 102, 6-Fluoro-3-((1-(2-(3-fluoro-6-methoxy-1,5-naphthyridin-4-yl)ethyl)-2-oxabicyclo[2.2.2]octan-4-ylamino)methyl)-1-methylquinolin-2(1H)-one]: the MIC was 2 µg/mL (≈ 3.84 µM).

As to `COc1ccc2ncc(F)c(CCC34CCC(NCc5c(OC)c6ccccc6n(C)c5=O)(CC3)CO4)c2n1` [Example 103, 3-((1-(2-(3-Fluoro-6-methoxy-1,5-naphthyridin-4-yl)ethyl)-2-oxabicyclo[2.2.2]octan-4-ylamino)methyl)-4-methoxy-1-methylquinolin-2(1H)-one], the MIC came to 4 µg/mL (≈ 7.51 µM). Under `COc1ccc2ncc(F)c(CCC34CCC(NCc5cc6ccc(Cl)cc6n(C)c5=O)(CC3)CO4)c2n1` [Example 104, 7-Chloro-3-((1-(2-(3-fluoro-6-methoxy-1,5-naphthyridin-4-yl)ethyl)-2-oxabicyclo[2.2.2]octan-4-ylamino)methyl)-1-methylquinolin-2(1H)-one] stands above 8 µg/mL; under `COc1ccc2ncc(F)c(CCC34CCC(NCc5cc6ccc(F)cc6n(C)c5=O)(CC3)CO4)c2n1` [Example 105, 7-Fluoro-3-((1-(2-(3-fluoro-6-methoxy-1,5-naphthyridin-4-yl)ethyl)-2-oxabicyclo[2.2.2]octan-4-ylamino)methyl)-1-methylquinolin-2(1H)-one], 2 µg/mL (≈ 3.84 µM); under `COc1ccc2ncc(F)c(CCC34CCC(NCc5cc6c(Cl)cccc6n(C)c5=O)(CC3)CO4)c2n1` [Example 106, 5-Chloro-3-((1-(2-(3-fluoro-6-methoxy-1,5-naphthyridin-4-yl)ethyl)-2-oxabicyclo[2.2.2]octan-4-ylamino)methyl)-1-methylquinolin-2(1H)-one], 1 µg/mL (≈ 1.86 µM). In the case of `COc1ccc2ncc(F)c(CCC34CCC(NCc5ccc6oc(=O)[nH]c6n5)(CC3)CO4)c2n1` [Example 107, 5-((1-(2-(3-Fluoro-6-methoxy-1,5-naphthyridin-4-yl)ethyl)-2-oxabicyclo[2.2.2]octan-4-ylamino)methyl)oxazolo[4,5-b]pyridin-2(3H)-one], the MIC amounted to 32 µg/mL (≈ 66.7 µM). To `COc1ccc2ncc(F)c(CCC34CCC(NCc5nc6cccnc6n(C)c5=O)(CC3)CO4)c2n1.Cl` [Example 108, 2-((1-(2-(3-Fluoro-6-methoxy-1,5-naphthyridin-4-yl)ethyl)-2-oxabicyclo[2.2.2]octan-4-ylamino)methyl)-4-methylpyrido[3,2-b]pyrazin-3(4H)-one Hydrochloride] belongs above 8 µg/mL; to `Cl.O=C1COc2ccc(CNC34CCC(CCN5C(=O)COc6cccnc65)(CC3)OC4)nc2N1` [Example 109, 6-((1-(2-(3-Oxo-2H-pyrido[3,2-b][1,4]oxazin-4(3H)-yl)ethyl)-2-oxabicyclo[2.2.2]octan-4-ylamino)methyl)-2H-pyrido[3,2-b][1,4]oxazin-3(4H)-one Hydrochloride], 8 µg/mL. On to `Cc1nccc2c1ccc(=O)n2CCC12CCC(NCc3ccc4c(n3)NC(=O)CO4)(CC1)CO2` [Example 110, 6-((1-(2-(5-Methyl-2-oxo-1,6-naphthyridin-1(2H)-yl)ethyl)-2-oxabicyclo[2.2.2]octan-4-ylamino)methyl)-2H-pyrido[3,2-b][1,4]oxazin-3(4H)-one], for which the MIC worked out at 4 µg/mL (≈ 8.41 µM). Regarding `Cc1ccc2ccc(=O)n(CCC34CCC(NCc5ccc6c(n5)NC(=O)CO6)(CC3)CO4)c2n1.Cl` [Example 111, 6-((1-(2-(7-Methyl-2-oxo-1,8-naphthyridin-1(2H)-yl)ethyl)-2-oxabicyclo[2.2.2]octan-4-ylamino)methyl)-2H-pyrido[3,2-b][1,4]oxazin-3(4H)-one Hydrochloride], the MIC was determined as 0.125 µg/mL. In the case of `O=C1COc2ccc(CNC34CCC(CCn5c(=O)c6cccn6c6c(F)cccc65)(CC3)OC4)nc2N1` [Example 112, 6-((1-(2-(9-Fluoro-4-oxopyrrolo[1,2-a]quinoxalin-5(4H)-yl)ethyl)-2-oxabicyclo[2.2.2]octan-4-ylamino)methyl)-2H-pyrido[3,2-b][1,4]oxazin-3(4H)-one], the MIC was found to be 1 µg/mL (≈ 1.93 µM).

Turning to `Cc1ccc2ccc(OCCC34CCC(NCc5ccc6c(n5)NC(=O)CO6)(CC3)CO4)nc2n1` [Example 113, 6-((1-(2-(7-Methyl-1,8-naphthyridin-2-yloxy)ethyl)-2-oxabicyclo[2.2.2]octan-4-ylamino)methyl)-2H-pyrido[3,2-b][1,4]oxazin-3(4H)-one], the MIC came out at 16 µg/mL (≈ 33.6 µM).
